Columns and labels:
[1] = rat; cited from earlier work
[2] = test system: Hep G2 cells; test: Biosynthesis of bile acids from cholestane-3β,5α,6β-triol in Hep G2 cells; format: in vitro ADME, human; conditions: 2.5 ng/mL, 24 h, conditioned medium
Description: To explore the biosynthetic route of the bile acids, the human hepatoblastoma-derived cell line Hep G2 was incubated with cholestane-3β,5α,6β-triol and 7,7,22,22,22-d4-cholestane-3β,5α,6β-triol. Hep G2 cells (1×10^6 cells/well) were seeded in a 6-well plate in triplicate and maintained in Dulbecco's modified Eagle's medium supplemented with 15% fetal calf serum and 100 U of penicillin G/mL and […] streptomycin sulfate at 37° C. in a humidified atmosphere with 5% CO2. Hep G2 cells were treated when they were 80% confluent. For the treatment, 100× stock solutions were made in DMSO for triol and d4-triol. DMSO concentration never exceeded 1% in the culture medium. […] The supernatant was transferred to a glass HPLC insert and analyzed immediately after preparation by the LC-MS/MS.
LC-MS/MS analysis was conducted on a Shimadzu (Columbia, Md.) Prominence UFLC system coupled with an Applied Biosystems/MDS Sciex (Ontario, Canada) 4000QTRAP mass spectrometer using multiple reaction monitoring (MRM). […] Data were acquired and analyzed by Analyst software (version 1.5.2). […] FIG. 40 depicts synthetic bile acid A detected by MRM transition m/z 407→407. FIG. 41 depicts bile acid A generated from cholestane-3β,5α,6β-triol in HepG2 cells and detected by MRM transition m/z 407→407. […]

[3] = Sample stability of bile acid B in dried blood spots, whole blood, processed samples, stock and working solutions; format: physicochemical
Description: Sample stability. The storage stability of dried blood spots and processed sample stabilities in the autosampler were determined at the LQC and HQC concentration levels (n=3). Storage stability of bile acid B in dried blood spots was tested at −20° C. and room temperature for 66 days, and at 37° C. for 90 hours. In the autosampler, stability was tested over seven days by injecting the first batch of the validation samples. The LQC and HQC in whole blood were placed on benchtop at room temperature for 27 hours and then spotted onto newborn screening cards to examine stability of bile acid B in whole blood. Stock solution stability was established by quantification of samples from dilution of two stock solutions that have been stored at −20° C. for 91 days and at room temperature on the bench for 22 hours, respectively, to the final solution (500 ng/mL in water). The storage stability of internal standard working solution was tested at room temperature for 12 days. A fresh standard curve was established each time. Bile acid B was stable in dried blood spots in newborn screening cards for up to 66 days at room temperature storage.
Stability in whole blood, dried blood spots, processed samples, stock and working solutions. The allowable time bile acid B spiked whole blood sample can remain at room temperature prior to spoiling on a newborn screening card was determined with LQC and HQC blood samples, which were remained at room temperature for 27 hours prior to spotting. Three replicates were assessed and the accuracy (within ±4.5% RE) and precision (<7.5% CV) were within the quality control acceptance criteria stated above. Bile acid B is therefore considered stable in whole blood for 27 hours prior to spotting.
The stability of bile acid B in dried blood spots on the newborn screening cards stored at room temperature and −20° C. for 66 days and at 37° C. for 90 hours was assessed by comparisons of three replicates of stored LQC and HQC against freshly prepared calibration standards and QC samples. […] Processed sample stability was assessed by re-injection of LQC and HQC together with calibration curve from one accuracy/precision run after storage in the autosampler at 4° C. for 7 days.
Stock solution stability of bile acid B and internal standard in acetonitrile-water (1:1) was established for 22 hours at room temperature. The internal standard in aqueous working solution (1% sodium dodecyl sulfate (SDS) and 50 mM trisodium citrate at pH 12) was stable for 12 days at room temperature.

For `C[C@H](CCC(=O)O)[C@H]1CCC2C3C[C@@H](O)[C@@]4(O)C[C@@H](O)CC[C@]4(C)C3CC[C@@]21C` (stereo partly drawn) [Bile acid A, 3β,5α,6β-trihydroxycholanic acid], the “metabolite of cholestane-3β,5α,6β-triol” value [1] is given as “major metabolite”.

In the case of `C[C@H](CCC(=O)NCC(=O)O)[C@H]1CC[C@H]2[C@@H]3C[C@@H](O)[C@@]4(O)C[C@@H](O)CC[C@]4(C)[C@H]3CC[C@]12C` [Bile acid B, N-(3β,5α,6β-trihydroxy-cholan-24-oyl)glycine], the “formation from cholestane-3β,5α,6β-triol or d4-triol” value [2] is reported as “No bile acid B was found”, the stock solution stability ([3]; acetonitrile-water (1:1), room temperature) is reported as 22 h and the processed sample stability ([3]; autosampler at 4° C. for 7 days) is reported as “Stability was demonstrated”. The “stability in dried blood spots on newborn screening cards” value (“stability in dried blood spots” below) ([3]; room temperature) was “up to 66 days”, the “stability in whole blood prior to spotting” value ([3]; room temperature, LQC and HQC) was 27 h and the “stability in dried blood spots” value ([3]; room temperature, listed as bile acid B) was “at least 66 days”. The “stability in dried blood spots” value ([3]; shipping conditions (37° C.)) was 90 h and the “stability in dried blood spots” value ([3]; −20° C.) was “at least 66 days”.

Source: US10983112B2, “Bile acid biomarkers for Niemann-Pick diseases, methods and uses therefor” (Washington University, priority 2014, dated 2021)
